Experimental data published in patent US8685970B2, “Quinolines and related analogs as sirtuin modulators” (GlaxoSmithKline, LLC, priority 2008, dated 2014).

Target: T1, SIRT1 (Homo sapiens, UniProt Q96EB6)
T1 sequence (Q96EB6 1-747): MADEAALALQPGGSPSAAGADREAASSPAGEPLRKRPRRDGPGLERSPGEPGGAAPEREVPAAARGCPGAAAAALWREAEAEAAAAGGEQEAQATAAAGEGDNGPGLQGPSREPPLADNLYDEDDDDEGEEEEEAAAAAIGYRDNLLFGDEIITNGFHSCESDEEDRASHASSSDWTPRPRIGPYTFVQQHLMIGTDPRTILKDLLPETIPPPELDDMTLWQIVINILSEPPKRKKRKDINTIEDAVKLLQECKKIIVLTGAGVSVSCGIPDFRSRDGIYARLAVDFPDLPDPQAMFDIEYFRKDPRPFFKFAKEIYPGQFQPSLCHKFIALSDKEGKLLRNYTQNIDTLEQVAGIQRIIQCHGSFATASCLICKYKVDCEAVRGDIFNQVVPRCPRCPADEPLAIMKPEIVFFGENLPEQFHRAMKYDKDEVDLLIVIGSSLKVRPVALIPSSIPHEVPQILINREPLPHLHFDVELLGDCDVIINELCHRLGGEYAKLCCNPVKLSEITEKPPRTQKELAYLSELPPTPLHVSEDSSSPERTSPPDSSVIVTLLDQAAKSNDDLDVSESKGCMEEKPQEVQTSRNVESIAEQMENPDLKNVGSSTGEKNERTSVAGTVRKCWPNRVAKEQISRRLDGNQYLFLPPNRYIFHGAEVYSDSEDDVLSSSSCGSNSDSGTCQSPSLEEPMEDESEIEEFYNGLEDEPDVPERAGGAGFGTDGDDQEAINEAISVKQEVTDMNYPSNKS
Experiment: Mass spectrometry based SIRT1 deacetylation assay (activation)
Assay type: biochemical
Settings: 10 nM SIRT1, 0.5 μM peptide substrate, 120 μM βNAD+, 25 min at 25° C.
Outline: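 Recombinant N-His-tagged SIRT1 (E. coli BL21(DE3)), 10 nM, incubated 25 min at 25 °C with 0.5 μM biotin/5TMR-labelled acetyl-p53-derived 20-mer peptide and 120 μM βNAD+ in Tris-acetate pH 8 buffer with DTT and BSA. Formic acid stop; MS quantifies acetylated vs deacetylated peptide. EC1.5 = concentration giving 150% activation versus DMSO.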

| % Fold Act. (percent maximum fold activation) | EC1.5 (concentration of test compound that results in 150% activation of SIRT1) | SMILES |
| --- | --- | --- |
| A (Fold activation >200%) | A (EC1.5<1.0 uM) | O=C(Nc1cccc2ccc(-c3cccc(C(F)(F)F)c3)nc12)c1cscn1 [Compound 5] |
| – | C (EC1.5>25 uM) | O=C(Nc1cccnc1)c1cccc2cnc(-c3cccnc3)nc12 [Compound 297] |
| A (Fold activation >200%) | A (EC1.5<1.0 uM) | O=C(Nc1ncnc2ccc(-c3cccc(OC(F)(F)F)c3)nc12)c1cscn1 [Compound 301] |
| A (Fold activation >200%) | B (EC1.5 1-25 uM) | O=C(Nc1cccc2ccc(-c3cccnc3)nc12)c1cccc(OCCN2CCOCC2)c1 [Compound 317] |
| A (Fold activation >200%) | A (EC1.5<1.0 uM) | Cc1csc(NC(=O)c2cccc3cnc(-c4cccc(N5CCOCC5)c4)nc23)n1 [Compound 313] |
| B (Fold Activation <200%) | A (EC1.5<1.0 uM) | O=C(Nc1ccc(Cl)cn1)c1cccc2ccc(-c3cccc(C(F)(F)F)c3)nc12 [Compound 56] |
| A (Fold activation >200%) | B (EC1.5 1-25 uM) | O=C(Nc1ncnc2ccc(-c3cccc(C(F)(F)F)c3)nc12)c1cccnc1 [Compound 311] |
| A (Fold activation >200%) | A (EC1.5<1.0 uM) | O=C(Nc1ncc(CN2CCOCC2)s1)c1cccc2ccc(-c3cccc(C(F)(F)F)c3)nc12 [Compound 188] |
| B (Fold Activation <200%) | A (EC1.5<1.0 uM) | O=C(Nc1cnccn1)c1cccc2ccc(-c3ccccc3)nc12 [Compound 15] |
| A (Fold activation >200%) | A (EC1.5<1.0 uM) | O=C(Nc1ccc(CN2CCCC2)cn1)c1cccc2ccc(-c3cccc(C(F)F)c3)nc12 [Compound 302] |
| – | C (EC1.5>25 uM) | O=S(=O)(Nc1nccs1)Nc1cccc2ccc(-c3cccc(OC(F)(F)F)c3)nc12 [Compound 113] |
| A (Fold activation >200%) | A (EC1.5<1.0 uM) | O=C(Nc1cccnn1)c1cccc2ccc(-c3cccc(N4CCOCC4)c3)nc12 [Compound 269] |
| A (Fold activation >200%) | B (EC1.5 1-25 uM) | O=C(Nc1ncc(CN2CCOCC2)s1)c1cccc2ccc(-c3cccnc3)nc12 [Compound 191] |
| A (Fold activation >200%) | A (EC1.5<1.0 uM) | O=C(Nc1nccs1)c1cccc2ccc(-c3cccc(C(F)(F)F)c3)nc12 [Compound 13] |
| B (Fold Activation <200%) | B (EC1.5 1-25 uM) | O=C(Nc1cccnc1Cl)c1cccc2ccc(-c3cccc(C(F)(F)F)c3)nc12 [Compound 57] |
| – | C (EC1.5>25 uM) | c1cncc(CNc2cccc3ccc(-c4cccnc4)nc23)c1 [Compound 145] |
| – | C (EC1.5>25 uM) | Cc1cc(-c2ccc3cccc(C(=O)Nc4ccccn4)c3n2)no1 [Compound 64] |
| A (Fold activation >200%) | A (EC1.5<1.0 uM) | O=C(Nc1nc(CN2CCOCC2)cs1)c1cccc2ccc(-c3cccc(C(F)(F)F)c3)nc12 [Compound 177] |
| – | C (EC1.5>25 uM) | O=C(Nc1nccs1)c1cccc2cnc(-c3cccnc3)nc12 [Compound 280] |
| A (Fold activation >200%) | A (EC1.5<1.0 uM) | O=C(Nc1cccnn1)c1cccc2ccc(-c3cccnc3)nc12 [Compound 263] |

Further lines, the compound ahead of its results:

| SMILES | % Fold Act. (percent maximum fold activation) | EC1.5 (concentration of test compound that results in 150% activation of SIRT1) |
| --- | --- | --- |
| FC(F)(F)c1ccccc1-c1ccc2cccc(NCc3cccnc3)c2n1 [Compound 162] | – | C (EC1.5>25 uM) |
| O=C(Nc1ccc(CN2CCOCC2)nc1)c1cccc2ccc(-c3cccc(C(F)F)c3)nc12 [Compound 289] | A (Fold activation >200%) | A (EC1.5<1.0 uM) |
| CS(=O)(=O)c1ccccc1-c1ccc2cccc(NC(=O)c3cscn3)c2n1 [Compound 93] | A (Fold activation >200%) | A (EC1.5<1.0 uM) |
| O=C(Nc1cccc2ccc(-c3ccccc3OC(F)(F)F)nc12)c1cscn1 [Compound 92] | A (Fold activation >200%) | A (EC1.5<1.0 uM) |
| Cc1cc(C)nc(NC(=O)c2cccc3ccc(-c4cccc(N5CCOCC5)c4)nc23)c1 [Compound 267] | A (Fold activation >200%) | A (EC1.5<1.0 uM) |
| O=C(Nc1cccc(CN2CCCC2)n1)c1cccc2ccc(-c3cccc(C(F)F)c3)nc12 [Compound 288] | A (Fold activation >200%) | A (EC1.5<1.0 uM) |
| Fc1ccc(-c2ccc3cccc(NCc4cccnc4)c3n2)cc1C(F)(F)F [Compound 166] | – | C (EC1.5>25 uM) |
| CS(=O)(=O)c1cccc(-c2ccc3cccc(NCc4cccnc4)c3n2)c1 [Compound 163] | – | C (EC1.5>25 uM) |
| O=C(Nc1cccc(CN2CCOCC2)c1)c1cccc2ccc(-c3cccc(C(F)(F)F)c3)nc12 [Compound 255] | A (Fold activation >200%) | A (EC1.5<1.0 uM) |
| O=C(Nc1cccc2ccc(-c3ccc(F)c(C(F)(F)F)c3)nc12)c1ccccc1 [Compound 170] | – | C (EC1.5>25 uM) |
| O=C(Nc1cccc(OC[C@H](O)CO)c1)c1cccc2ccc(-c3cccc(C(F)(F)F)c3)nc12 [Compound 217] | A (Fold activation >200%) | A (EC1.5<1.0 uM) |
| CN1CCOc2cc(-c3ccc4cccc(NC(=O)c5cscn5)c4n3)ccc21 [Compound 202] | A (Fold activation >200%) | A (EC1.5<1.0 uM) |
| O=C(Nc1cccc2ccc(-c3ccccc3OCCN3CCOCC3)nc12)c1cscn1 [Compound 175] | A (Fold activation >200%) | B (EC1.5 1-25 uM) |
| FC(F)(F)c1ccc(-c2ccc3cccc(NCc4cccnc4)c3n2)cc1 [Compound 171] | – | C (EC1.5>25 uM) |
| O=C(Nc1ccnc(N2CCOCC2)c1)c1cccc2ccc(-c3cccc(C(F)(F)F)c3)nc12 [Compound 321] | A (Fold activation >200%) | A (EC1.5<1.0 uM) |
